Data on 6 molecules can be found in publication PMC4929432, “The Oligopeptide Permease Opp Mediates Illicit Transport of the Bacterial P-site Decoding Inhibitor GE81112” (Antibiotics, 2016).

Assay [1] has as its system glutamine synthetase. The conditions noted are these: product of bialaphos hydrolysis; ref [10]; cited from earlier work.
In assay [2] the test system is B. subtilis resistant clones. Kind of assay: Cross-resistance of resistant clones. It is filed as cell-based. The following applies: of 10 GE81112-resistant clones.
For assay [3], the system named is bacterial peptide transporting systems. The conditions noted are these: ref [10]; cited from earlier work. From the text:
Indeed, several peptide transport systems exist in E. coli as well in B. subtilis and the peptides actively transported inside the cells can supp ...

Assay [4] deals with Opp of B. subtilis. The conditions noted are these: ref [10]; cited from earlier work.
Assay [5] relates to ribosome, 16S rRNA mutation A1518U. Kind of assay: In vitro mRNA translation. It is filed as biochemical. The conditions noted are these: E. coli AVS69009 16S rRNA A1518U. Here is the method:
(§1) The ribosomal localization of GE81112, as determined by a recent crystallographic study, places this antibiotic in a position that is not too far away from the binding site of kasugamycin [20, 21]. For this reason, some ribosomal mutants bearing 16S rRNA base substitutions that cause kasugamycin resistance were tested for their sensitivity to GE81112 inhibition.
(§2) The 027IF2Cp(A) mRNA and the bacterial S30 cell extracts were prepared as described. The incubation conditions for mRNA translation and for the determination of synthesized product have also been previously described.

Assay [6] concerns ribosome, 16S rRNA mutation A794G. Kind of assay: In vitro mRNA translation. It is filed as biochemical. The conditions noted are these: E. coli AVS69009 16S rRNA A794G. Here is the method:
as §1, §2

For assay [7], the system named is ribosome, 16S rRNA mutation A794U. Kind of assay: In vitro mRNA translation. The following applies: E. coli AVS69009 16S rRNA A794U. It is filed as biochemical. Here is the method:
as §1, §2

Assay [8] concerns ribosome, 16S rRNA mutation G926A. Kind of assay: In vitro mRNA translation. It is filed as biochemical. The conditions noted are these: E. coli AVS69009 16S rRNA G926A. Here is the method:
as §1, §2

Assay [9] has as its system ribosome, 16S rRNA mutation G926C. Kind of assay: In vitro mRNA translation. The format is biochemical. The following applies: E. coli AVS69009 16S rRNA G926C. Here is the method: as §1, §2
In assay [10] the test system is ribosome, 16S rRNA mutation G926U. Kind of assay: In vitro mRNA translation. It is filed as biochemical. The conditions noted are these: E. coli AVS69009 16S rRNA G926U. Here is the method:
as §1, §2

The subject of assay [11] is ribosome, 16S rRNA wt. Kind of assay: In vitro mRNA translation. The conditions noted are these: E. coli AVS69009 16S rRNA wt. The format is biochemical. Here is the method:
as §1, §2

The subject of assay [12] is E. coli DH5α + pB2 (oppBCDF). Kind of assay: Growth inhibition halo. The format is cell-based. The conditions noted are these: 10 μg; minimal medium agar; 24 h at 37 °C. Here is the method: (§3) The inhibition of bacterial growth by antibiotics was also determined from the diameter of the growth inhibition halo. Bacterial suspensions obtained after overnight growth in minimal medium were diluted and inoculated in 4 mL of Agar–H2O (0.75%) and plated on minimal medium. Ten-microliter spots of the antibiotics were added and the growth inhibition halos measured after 24 h incubation at 37 °C.

For assay [13], the system named is E. coli DH5α + pBΦ30 (oppA). Kind of assay: Growth inhibition halo. It is filed as cell-based. The following applies: 10 μg; minimal medium agar; 24 h at 37 °C. Here is the method:
as §3

Assay [14] has as its system E. coli DH5α + pBΦ30 + pB2. Kind of assay: Growth inhibition halo. It is filed as cell-based. The following applies: 10 μg; minimal medium agar; 24 h at 37 °C. Here is the method:
as §3

The subject of assay [15] is E. coli DH5α. Kind of assay: Growth inhibition halo. The format is cell-based. Here is the method: as §3
The subject of assay [16] is E. coli MG1655. Kind of assay: Growth inhibition halo. It is filed as cell-based. Here is the method:
as §3

The subject of assay [17] is E. coli SS320 (wt) + pB2 + pBΦ30. Kind of assay: Growth inhibition halo. It is filed as cell-based. The following applies: for Halo of Inhibition: minimal medium agar, 24 h at 37 °C. Here is the method:
as §3

For assay [18], the system named is E. coli SS320 (wt). Kind of assay: Growth inhibition halo. It is filed as cell-based. The conditions noted are these: minimal medium agar, 24 h at 37 °C. Here is the method:
as §3

Assay [19] has as its system E. coli SS5012 (ΔoppABCDF). Kind of assay: Growth inhibition halo. It is filed as cell-based. The following applies: for Halo of Inhibition: minimal medium agar, 24 h at 37 °C. Here is the method: as §3
For assay [20], the system named is E. coli SS5012 + pB2 (oppBCDF). Kind of assay: Growth inhibition halo. The conditions noted are these: minimal medium agar, 24 h at 37 °C. It is filed as cell-based. Here is the method: as §3
Assay [21] deals with E. coli SS5012 + pB2 + pBΦ30. Kind of assay: Growth inhibition halo. It is filed as cell-based. The following applies: for Halo of Inhibition: minimal medium agar, 24 h at 37 °C. Here is the method:
as §3

For assay [22], the system named is E. coli SS5012 + pBΦ30 (oppA). Kind of assay: Growth inhibition halo. It is filed as cell-based. The conditions noted are these: minimal medium agar, 24 h at 37 °C. Here is the method:
as §3

Assay [23] deals with E. coli MG1655 resistant mutants. Kind of assay: Cross-resistance of resistant mutants. The format is cell-based. The following applies: of 100 GE81112-resistant colonies; tri-L-ornithine 100 μg/mL.
Assay [24] concerns mRNA translation in cell-free extracts. The conditions noted are these: ref [16]; cited from earlier work. From the text: (§4) Therefore, the most likely explanation for the observed tri-L-ornithine/GE81112 cross-resistance is that the mutations have inactivated the same transport mechanism that allows these two molecules to enter the cell.
The subject of assay [25] is translation in vivo. The following applies: early studies; ref [16]; cited from earlier work.
Text: as §4

Assay [26] relates to opp expression. The conditions noted are these: ref [17],[18]; cited from earlier work.
The subject of assay [27] is Opp. The conditions noted are these: ref [17]; cited from earlier work.
Setting [28] is: 10 μg, minimal medium agar, 24 h at 37 °C.

As to `CP(=O)(O)CC[C@H](N)C(=O)O` [phosphinothricin], the “inhibition of glutamine synthetase” value in assay [1] is listed as “inhibits glutamine synthetase”.

For the molecule bialaphos, the “GE81112-resistant clones sensitive to bialaphos” value in assay [2] is “none”. Further, the “active transport with antibacterial effects” value in assay [3] is on record as “actively transported inside the cell causing antibacterial effects”. The “active transport by Opp” value in [4] is “actively transported by Opp”.

As for `C[C@H]1O[C@H](O[C@H]2[C@H](O)[C@@H](O)[C@@H](O)[C@H](O)[C@@H]2O)[C@@H](N)C[C@@H]1NC(=N)C(=O)O` [Kasugamycin], the “IC50 of mRNA Translation” value in [5] was determined as 880 µg/mL; in assay [6] it was 780 µg/mL; in assay [7], 384 µg/mL; in [8], 390 µg/mL; in [9], 192 µg/mL; in assay [10] it was 750 µg/mL. In assay [11], the “IC50 of mRNA Translation” value worked out at 12 µg/mL.

For tri-L-ornithine [Orn3], the “Halo of Inhibition” value in [12] was found to be 10 mm; in [13] it was 11 mm; in assay [14], 14 mm; in assay [15] (setting [28]), 0 mm; in assay [16] (setting [28]) it was 10 mm; in assay [17] (1 μg) it was 17 mm. Moreover, the “Halo of Inhibition” value in assay [17] (10 μg) came to 27 mm; in assay [18] (1 μg), 7 mm; in assay [18] (10 μg), 12 mm; in [19] (1 μg) it was 0 mm; in assay [19] (10 μg), 0 mm; in assay [20] (1 μg), 0 mm. The “Halo of Inhibition” value in assay [20] (10 μg) is 0 mm; in [21] (1 μg) it was 18 mm; in assay [21] (10 μg) it was 26 mm; in [22] (1 μg), 0 mm; in assay [22] (10 μg), 0 mm. Besides, the “growth inhibition, in words” value in assay [15] (E. coli DH5α (Table 4)) is “unaffected”; in assay [16] (E. coli MG1655 (Table 4)), “inhibited”. Also, the “sensitivity, in words” value in [17] (wt transformed with both pBΦ30 and pB2) is listed as “more sensitive”; in [21] (expression in trans of oppA together with oppBCDF), “sensitive”. Besides, the “growth inhibition on minimal medium agar, in words” value in assay [19] (E. coli 5012, opp− mutant) is given as “insensitive”. Besides, in assay [23], the “number of GE81112-resistant mutants cross-resistant to tri-L-ornithine” value amounted to 100. Also, the “inhibition of mRNA translation in vitro” value in assay [24] is on record as “unable to inhibit mRNA translation”. Besides, the “inhibition of translation in vivo” value in assay [25] is “inhibits translation in vivo”. For the same molecule, in [3], the “active transport with antibacterial effects” value is “actively transported inside the cell causing antibacterial effects”.

In the case of `CC(C)C[C@H](N)C(=O)O` [L-leucine], the “effect on opp expression” value in assay [26] was “induces opp expression”.

tri-L-alanine: the Opp substrate entry in [27] is “known non-toxic Opp substrate”.
